In patent publication US9480418B2, “Systems and methods for the screening and monitoring of inner ear function” (The United States Government as represented by the …, priority 2012, dated 2016):

Tested on: hearing in the SRO frequencies
Assay: Validation study: SRO hearing monitoring with OtoID in subjects receiving cisplatin
Format: in vivo, human
Conditions: 9 ears of 24 monitored; Validation sample
Source text: Validation Study, Sample Subjects. […] Subjects were prescreened using the electronic medical records for exclusionary criteria and to obtain treatment information. The subjects enrolled in the Validation study were part of a larger project to develop and evaluate a portable hearing testing device capable of measuring extended high frequency hearing. Except for the following two study-related differences, the same exclusionary criteria were used to recruit both groups of subjects (those participating in the Developmental or Validation studies). First, there was no exclusion for extent of hearing threshold loss in the Validation study sample. Second, subjects from the Validation study were tested on the chemotherapy unit or at bedside in the case of inpatients. There was no overlap of subjects in these two samples.
Validation Study; Equipment and Measurements. […] This device, the OtoID, was evaluated in an independent study for its ability to optimize the sensitivity, efficiency, and cost-effectiveness of ototoxicity early identification practices. […]
Sennheiser HDA 200 earphones were used with the OtoID to reduce the detrimental effects of environmental noise. […] The seven frequencies constituting each subject's individualized behavioral SRO were evaluated at each treatment interval. […] Subjects were also evaluated immediately following cessation of treatment and at 1 mo post-cessation of treatment. […]

## N.N.[Cl][Pt][Cl] [cisplatin]
  ears in which hearing loss occurred: 38%
